According to US10045529B2, “Quat cleaner with glycerin ether ethoxylates” (Ecolab USA Inc., priority 2012, dated 2018):

Assays:
[1] = Cloud point of solfactants in various solutions; format: physicochemical; conditions: 1% in 10% NaCl
Description: Various 2-Ethyl Hexanol Glycerin Ether Ethoxylate solfactants were produced using ethoxylation by a KOH Catalyst.
Further the cloud point data for the solfactants in various solutions is shown. The cloud point temperatures show the temperature above which a surfactant-rich phase separates from an aqueous solution. There is a clear relationship between the cloud point and the average EO content of the glycerin ether ethoxylate; as the ethylene oxide content of the solfactant increases, the cloud point and water solubility increase. As the carbon number on the molecule increases, a greater number of moles of ethylene oxide are required to be added to the molecule to retain the same cloud point.

[2] = Glewwe foam meter foam height test; format: physicochemical; conditions: 50 ppm
Description: Foam testing was completed for the ethoxylated glycerine ether solfactants in comparison to commercially-available ethoxylated alcohols using a Glewwe foam meter. A Glewwe foam meter provides a dynamic foam test rather than a static test, which is considered more appropriate for simulation of industrial conditions. The equipment and general procedure for the Glewwe form test is described in U.S. Pat. Nos. 3,899,387 and 5,447,648, which are herein incorporated by reference in its entirety. The foam meter itself consists of a thermostated reservoir and a pump to recirculate the aqueous medium with foaming tendencies. The foam developed by the action of the aqueous stream impinging on the surface in the reservoir causes foam formation.
The foam heights of the tested compositions were determined using the following method. First 3000 mL of city water (e.g. 17 gpg) was filled into the Glewwe cylinder. The pump was turned on, pressure adjusted to 6 psi, and heated water to 140° F. The commercially available surfactant (or the solfactant according to the invention) was added at 50 ppm in the cylinder and the timer was started. Foam height was recorded at 1 minute and 5 minutes. After 5 minutes the pump was stopped and foam stability characteristics were observed. The cylinder was then drained, rinsed, and the methods repeated.

Gel formation with water = format: physicochemical
Description: The low foam profiles and low viscosity of the glycerin ether ethoxylate solfactants as shown in Examples 5 and 6 were further compared to gel curves of conventional ethoxylated alcohols (e.g. Tomadol surfactants). […]

[3] = Tergotometer detergency test on EMPA soiled swatches
Procedure: Laundry detergent compositions using 500 ppm sodium hydroxide (e.g. caustic) and the indicated conventional Surfonic® surfactant or the glycerin ether ethoxylate solfactant according to the invention were evaluated. A tergotometer test procedure was employed to measure detergency of test compositions according to the invention. A tergotometer along with 500 mL pots and water bath were employed. First, unwashed swatches from the lot numbers to be used in the test are read on the Konica Minolta Spectrophotometer model CM-3600d to establish the average initial (before washing) L value. A sampling of each swatch type is used. The desired wash temperature is programmed into the Tergotometer and its water bath is allowed to heat up to that temperature. 500 mL of the desired water type is added to each Tergotometer pot and allowed to equilibrate to the desired temperature.
The following standard, commercially available (EMPA) soiled swatches were used for baseline testing in the Examples, as shown in Table 9.
The test detergent compositions are weighed out and added to the Tergotometer pots. Various detergent compositions as shown in Tables 10-11 were employed under varying water conditions, including 5 grain water (Table 10) and 17 grain water (Table 11).
The detergent systems were agitated for 10 minutes to mix and dissolve in the water sources. The agitation/mixing speed RPM was adjusted to 200. The temperature of the detergent compositions dissolved in water was 60° C., unless indicated otherwise in the Figures/Examples set forth below. The swatches are added quickly to their respective pots in a left to right sequence in order to minimize differences in exposure time to the detergent systems. A wash run is completed for at least 10 minutes. At the end of the run, the swatches are removed from the pots quickly in a left to right sequence using a forceps and are transferred into 500 mL-1 liter of cool water to rinse. After rinsing with cold tap water, excess water from the swatches was removed by squeezing the swatches. The process was repeated with rinsing and squeezing excess water at least 2 more times. The swatches were air dried on a visa napkin or paper towel on the lab bench.
The swatches were then read on the HunterLab Color Quest and calculate % soil removal (i.e. whiteness) from the difference between the initial (before washing) L value and the final L value (after washing). Percent Soil Removal=(L after−L initial)/(96−L initial)*100 is represented as L*.

[4] = Differential Scanning calorimetry (DSC) freeze or melt point; format: physicochemical
Procedure: Differential Scanning calorimetry (DSC) was run on the various 2-Ethyl Hexanol Glycerin Ether Ethoxylate solfactants set forth in Table 1. The DSC evaluated additional properties of the exemplary set of novel solfactants, namely the freezing point of the molecules. The DSC utilized can be measured down to minus 80° C. for determining a freeze or melt points of a liquid. […] This is distinct form conventional alcohol ethoxylates (having equivalent degrees of ethoxylation) which have very high melt points. For example, many conventional alcohol ethoxylate surfactants have melt points at room temperature or higher, resulting in the compositions being solids at room temperature. In addition, as one skilled in the art ascertains, the more ethyl oxide you add to a standard alcohol ethoxylate, the higher the melt point. This is distinct from the solfactants according to the invention, including the 2-Ethyl Hexanol Glycerin Ether Ethoxylate solfactants set forth in Table 1. For example, Tomadol 24-9 is a solid at room temperature, whereas the equivalent 2EHGE 9 mole is a liquid at room temperature.

Question: For “2-Ethyl Hexanol Glycerin Ether Ethoxylate (9 moles) [2EHGE (9 EO)]”, which “Cloud Point Data 1% in 10% NaCl” value [1] is on record?
Answer: 95 °C

Question: And the “OBSERVATIONS (foam stability after pump stopped)” value ([2]; after 5 minutes pump stopped)?
Answer: Unstable - Breaks

Question: What about the “Foam Height (in) @ 1 MIN” value ([2]; city water 17 gpg, 140° F., 6 psi, 1 minute) of the same substance?
Answer: 4.5 in

Question: What about the “Foam Height (in) @ 5 MIN” value ([2]; city water 17 gpg, 140° F., 6 psi, 5 minutes) of the same substance?
Answer: 4.5 in

Question: And the “Gel Formation” value (Gel formation with water; 20%/80%)?
Answer: None

Question: And the “Gel Formation” value (Gel formation with water; 30%/70%)?
Answer: None

Question: What about the “Gel Formation” value (Gel formation with water; 40%/60%) of the same substance?
Answer: None

Question: What about the “Gel Formation” value (Gel formation with water; 50%/50%) of the same substance?
Answer: None

Question: What about the “Gel Formation” value (Gel formation with water; 60%/40%) of the same substance?
Answer: None

Question: And the “Gel Formation” value (Gel formation with water; 70%/30%)?
Answer: None

Question: And the “Gel Formation” value (Gel formation with water; 80%/20%)?
Answer: None

Question: What about the “Gel Formation” value (Gel formation with water; 90%/10%) of the same substance?
Answer: None

Question: What about the “Gel Formation” value (Gel formation with water; Glycerin Ether Ethoxylate %/Water % 10%/90%) of the same substance?
Answer: None

Question: What about the “% removal EMPA 116” value ([3]; 5 gpg water, 50 ppm, 500 ppm sodium hydroxide, 60° C., EMPA 116 (Blood, milk and ink, Cotton)) of the same substance?
Answer: 33%

Question: And the “% removal EMPA 101” value ([3]; 5 gpg, 50 ppm, EMPA 101 (olive oil/carbon black, Cotton))?
Answer: 32%

Question: And the “% removal EMPA 104” value ([3]; 5 gpg, 50 ppm, EMPA 104 (olive oil/carbon black, Cotton blend))?
Answer: 38%

Question: And the “% removal EMPA 106” value ([3]; 5 gpg, 50 ppm, EMPA 106 (mineral oil, Cotton))?
Answer: 55.18%

Question: What about the “% removal EMPA 111” value ([3]; 5 gpg, 50 ppm, EMPA 111 (Pig blood, Cotton)) of the same substance?
Answer: 48%

Question: What about the “% removal EMPA 114” value ([3]; 5 gpg, 50 ppm, EMPA 114 (Red wine, Cotton)) of the same substance?
Answer: 2%

Question: What about the “% removal EMPA 101” value ([3]; 5 gpg, 100 ppm, EMPA 101) of the same substance?
Answer: 29%

Question: What about the “% removal EMPA 104” value ([3]; 5 gpg, 100 ppm, EMPA 104) of the same substance?
Answer: 24%

Question: What about the “% removal EMPA 106” value ([3]; 5 gpg, 100 ppm, EMPA 106) of the same substance?
Answer: 50.14%

Question: And the “% removal EMPA 111” value ([3]; 5 gpg, 100 ppm, EMPA 111)?
Answer: 54%

Question: And the “% removal EMPA 114” value ([3]; 5 gpg, 100 ppm, EMPA 114)?
Answer: 0%

Question: And the “% removal EMPA 116” value ([3]; 5 gpg, 100 ppm, EMPA 116)?
Answer: 25%

Question: And the “% removal EMPA 101” value ([3]; 17 gpg, 50 ppm, EMPA 101)?
Answer: 21%

Question: What about the “% removal EMPA 104” value ([3]; 17 gpg, 50 ppm, EMPA 104) of the same substance?
Answer: 19%

Question: What about the “% removal EMPA 106” value ([3]; 17 gpg, 50 ppm, EMPA 106) of the same substance?
Answer: 9%

Question: What about the “% removal EMPA 111” value ([3]; 17 gpg, 50 ppm, EMPA 111) of the same substance?
Answer: 35%

Question: And the “% removal EMPA 114” value ([3]; 17 gpg, 50 ppm, EMPA 114)?
Answer: 1%

Question: And the “% removal EMPA 116” value ([3]; 17 gpg, 50 ppm, EMPA 116)?
Answer: 21%

Question: What about the “% removal EMPA 101” value ([3]; 17 gpg, 100 ppm, EMPA 101) of the same substance?
Answer: 20%

Question: And the “% removal EMPA 104” value ([3]; 17 gpg, 100 ppm, EMPA 104)?
Answer: 16%

Question: What about the “% removal EMPA 106” value ([3]; 17 gpg, 100 ppm, EMPA 106) of the same substance?
Answer: 10%

Question: And the “% removal EMPA 111” value ([3]; 17 gpg, 100 ppm, EMPA 111)?
Answer: 32%

Question: What about the “% removal EMPA 114” value ([3]; 17 gpg, 100 ppm, EMPA 114) of the same substance?
Answer: 1%

Question: And the “% removal EMPA 116” value ([3]; 17 gpg, 100 ppm, EMPA 116)?
Answer: 20%

Question: What about the “Physical state at room temperature” value [4] of the same substance?
Answer: liquid
